Data from patent US5684151A, “1-arylsulphonyl, arylcarbonyl and 1-arylphosphonyl-3-phenyl-1,4,5,6-tetrahydropyridazines” (priority 1995, dated 1997).
pIC50: −log10 of the molar value. Read-outs that look alike come from different tables or passages of the source.

Tests used:
[1] = molecular target: T1, progestin receptor from rabbit uterus (Oryctolagus cuniculus, UniProt P06186); experiment: Progestin receptor binding (3H-R5020 displacement); conditions: rabbit uterine cytosol, 4° C., 18 h, read-out: IC50: Binding affinity for the progestin receptor from rabbit uterus
T1 construct: Cytosolic progestin receptor were obtained by mixing rabbit uterine tissue with a Tris buffer; from tissue; host or cells: rabbit uterus cytosol
T1 sequence (P06186 whole entry): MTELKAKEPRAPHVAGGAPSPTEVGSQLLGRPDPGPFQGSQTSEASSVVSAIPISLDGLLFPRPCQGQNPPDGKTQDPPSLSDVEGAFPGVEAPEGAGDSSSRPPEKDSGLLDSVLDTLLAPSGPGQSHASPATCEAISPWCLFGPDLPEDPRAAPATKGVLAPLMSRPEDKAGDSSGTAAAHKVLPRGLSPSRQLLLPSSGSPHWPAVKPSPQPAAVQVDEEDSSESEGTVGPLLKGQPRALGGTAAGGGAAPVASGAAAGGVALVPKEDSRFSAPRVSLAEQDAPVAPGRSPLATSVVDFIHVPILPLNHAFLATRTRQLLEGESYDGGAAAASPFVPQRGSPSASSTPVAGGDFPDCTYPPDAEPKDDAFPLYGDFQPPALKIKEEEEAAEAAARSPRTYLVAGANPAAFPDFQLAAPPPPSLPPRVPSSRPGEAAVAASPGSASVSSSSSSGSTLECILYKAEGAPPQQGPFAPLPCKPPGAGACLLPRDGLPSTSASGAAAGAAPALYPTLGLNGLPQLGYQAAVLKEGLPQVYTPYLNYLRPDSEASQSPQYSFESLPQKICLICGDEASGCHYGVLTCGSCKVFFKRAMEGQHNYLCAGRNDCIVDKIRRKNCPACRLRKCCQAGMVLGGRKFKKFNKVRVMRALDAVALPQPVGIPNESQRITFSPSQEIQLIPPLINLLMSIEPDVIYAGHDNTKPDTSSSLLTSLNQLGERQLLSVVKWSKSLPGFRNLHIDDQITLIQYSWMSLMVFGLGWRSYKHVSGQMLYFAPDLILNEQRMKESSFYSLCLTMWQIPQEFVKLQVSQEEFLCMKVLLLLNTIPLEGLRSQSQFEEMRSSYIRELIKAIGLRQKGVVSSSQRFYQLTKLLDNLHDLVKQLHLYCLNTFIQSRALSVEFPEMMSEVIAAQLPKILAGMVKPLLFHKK
Protocol: A progestin initiates a biological response by first binding to a progestin receptor. Affinity for progestin receptors was determined by measuring the ability of compounds to displace a progestin radioligand from those receptors in vitro. Cytosolic progestin receptor were obtained by mixing rabbit uterine tissue with a Tris buffer [0.1M Tris-Hcl, 1 mM Na2 EDTA, 1 mM dithiothreotol, 1 mM sodium molybdate, 1% glycerol, pH 7.4]. The tissue/buffer mixture was homogenized under ice-cold conditions. The homogenate was then centrifuged and the supernatant (cytosol preparation) was decanted and stored at -70° C. and thawed prior to use. The competitive binding assay was performed by mixing ^3 H-R5020, a progestin radioligand, with cytosol preparation and various concentrations of test compounds (prepared in DMSO with a final 5% DMSO concentration). This mixture was then incubated at 4° C. for about 18 hours. Non-specific binding was determined using an unlabelled ligand in excess. After the incubation period, the radioligand bound to receptor was separated from free radioligand using dextran-coated charcoal. The amount of bound radioligand was then determined by liquid scintillation counting. The data were expressed as the concentration of test compound that displaced 50% of the radioligand from the receptor (IC50)
Aspects of the application used in this procedure are described in the following: J. L. McGuire et al., Biochemistry 13, 319, 1974.

[2] = tested on: mouse (MC3T3-E1) and human (TE-85) osteoblast-line cells; format: cell-based
Description: Compounds of the present invention have utility to treat osteoporosis through enhancement of bone calcification rather than traditional approaches which generally involve inhibition of bone degeneration or resorption. The compounds of the present invention have been evaluated as stimulators of proliferation of osteoblast cell and chick calivaria bone organ culture which is predictive of enhancement of bone mass and bone formation in vivo.
The action of select compounds to stimulate osteoblast growth was measured in culture by estimating the rate of DNA synthesis by the rate of ^3 H-thymidine incorporation into DNA. Only cells undergoing mitosis synthesized new DNA and thus only these cells incorporated the radiolabelled DNA-specific thymidine. The stimulation of the proliferation and differentiation of bone-forming cells, osteoblasts, was a prerequisite for an increase in bone formation and bone mass. The ability of agents to increase osteoblast proliferation and differentiation can be predicted by their action on cultured osteoblast-line cells in vitro. In this test, mouse (MC3T3-E1) and human (TE-85) osteoblast-line cells (American Type Tissue Culture Collection, #CRL 1543, Rockville, Md. cloned by Sudo et al., Koriyama, Japan) were cultured in vitro and the effect of various agents were tested on osteoblast cell proliferation. Cells were harvested from large culture flasks where they were allowed to grow to near confluency using trypsin. The cells were plated into 96 well culture plates, 1600 cells in 100 μL per well in Dulbencos Modified Eagle's Medium (DMEM) with 25 mM HEPES buffer, L-glutamine (584 mg/L); D-glucose (4.5 g/L) supplemented with fetal bovine sera (10%); penicillin (100 units/mL) and streptomycin (100 mcg/mL); sodium pyruvate (10 μM final concentration). The cells were allowed to plate overnight in DMEM containing 10% fetal bovine sera at 37° C. in an atmosphere of 5% CO2/95% air. Following their placement into 96 well culture plates all the osteoblast-line cells, either the MC3T3-E1 or the TE-85 cell lines, were allowed an additional 24 hours preincubation period in media containing only 0.1% fetal bovine sera.
Twenty hours later, a 20 μL aliquot of media containing 0.4 μCi of ^3 H-thymidine was added to each culture well. The cells were then incubated an additional 4 hours. The incubation was terminated by aspirating the media and washing with HBSS (Hank's Balanced Salt Solution). The cells were then treated with 100 μL of 0.5% trypsin and 5.3 mM EDTA for 30 minutes at room temperature. The cells were then aspirated onto glass fiber filter and washed with water. The radioactivity on the filters was quantified by liquid scintillation spectroscopy. The rate of ^3 H-thymidine incorporation into DNA was then utilized as an index of cell proliferation. The results are shown in Table 13 expressed as % times control where the control is 100%. […]

Cc1ccc(S(=O)(=O)N2CCCC(c3ccccc3)=N2)cc1 [Compound 2]
pIC50 [1]: 5.52 | Osteoblast Cell Proliferation, 3H-thymidine incorporation vs control (100%) ([2]; 10^-6): 105% | Osteoblast Cell Proliferation, 3H-thymidine incorporation vs control (100%) ([2]; 10^-7): 119% | Osteoblast Cell Proliferation, 3H-thymidine incorporation vs control (100%) ([2]; 10^-8): 99% | Osteoblast Cell Proliferation, 3H-thymidine incorporation vs control (100%) ([2]; 10^-9): 91% | Osteoblast Cell Proliferation, 3H-thymidine incorporation vs control (100%) ([2]; 10^-10): 77%

COc1ccc(C2=NN(S(=O)(=O)c3ccc(C)cc3)CCC2)cc1 [Compound 3]
pIC50 [1]: 5.00 | Osteoblast Cell Proliferation, 3H-thymidine incorporation vs control (100%) ([2]; 10^-6): 92% | Osteoblast Cell Proliferation, 3H-thymidine incorporation vs control (100%) ([2]; 10^-7): 110% | Osteoblast Cell Proliferation, 3H-thymidine incorporation vs control (100%) ([2]; 10^-8): 115% | Osteoblast Cell Proliferation, 3H-thymidine incorporation vs control (100%) ([2]; 10^-9): 138% | Osteoblast Cell Proliferation, 3H-thymidine incorporation vs control (100%) ([2]; 10^-10): 118%

O=[N+]([O-])c1ccc(S(=O)(=O)N2CCCC(c3ccc(Cl)cc3)=N2)cc1 [Compound 4]
pIC50 [1]: 6.70 | Osteoblast Cell Proliferation, 3H-thymidine incorporation vs control (100%) ([2]; 10^-6): 108% | Osteoblast Cell Proliferation, 3H-thymidine incorporation vs control (100%) ([2]; 10^-7): 111% | Osteoblast Cell Proliferation, 3H-thymidine incorporation vs control (100%) ([2]; 10^-8): 155% | Osteoblast Cell Proliferation, 3H-thymidine incorporation vs control (100%) ([2]; 10^-9): 153% | Osteoblast Cell Proliferation, 3H-thymidine incorporation vs control (100%) ([2]; 10^-10): 158%

O=S(=O)(c1cc(Cl)ccc1Cl)N1CCCC(c2ccc(Cl)cc2)=N1 [Compound 5]
pIC50 [1]: 8.28 | Osteoblast Cell Proliferation, 3H-thymidine incorporation vs control (100%) ([2]; 10^-6): 89% | Osteoblast Cell Proliferation, 3H-thymidine incorporation vs control (100%) ([2]; 10^-7): 106% | Osteoblast Cell Proliferation, 3H-thymidine incorporation vs control (100%) ([2]; 10^-8): 124% | Osteoblast Cell Proliferation, 3H-thymidine incorporation vs control (100%) ([2]; 10^-9): 108% | Osteoblast Cell Proliferation, 3H-thymidine incorporation vs control (100%) ([2]; 10^-10): 114%

O=S(=O)(c1ccc(Cl)cc1)N1CCCC(c2ccc(Cl)cc2)=N1 [Compound 6]
pIC50 [1]: 7.82 | Osteoblast Cell Proliferation, 3H-thymidine incorporation vs control (100%) ([2]; 10^-6): 81% | Osteoblast Cell Proliferation, 3H-thymidine incorporation vs control (100%) ([2]; 10^-7): 97% | Osteoblast Cell Proliferation, 3H-thymidine incorporation vs control (100%) ([2]; 10^-8): 106% | Osteoblast Cell Proliferation, 3H-thymidine incorporation vs control (100%) ([2]; 10^-9): 114% | Osteoblast Cell Proliferation, 3H-thymidine incorporation vs control (100%) ([2]; 10^-10): 121%

Cc1ccc(S(=O)(=O)N2CCCC(c3ccc(F)cc3)=N2)cc1 [Compound 9]
pIC50 [1]: 6.44 | Osteoblast Cell Proliferation, 3H-thymidine incorporation vs control (100%) ([2]; 10^-6): 65% | Osteoblast Cell Proliferation, 3H-thymidine incorporation vs control (100%) ([2]; 10^-7): 94% | Osteoblast Cell Proliferation, 3H-thymidine incorporation vs control (100%) ([2]; 10^-8): 128% | Osteoblast Cell Proliferation, 3H-thymidine incorporation vs control (100%) ([2]; 10^-9): 102% | Osteoblast Cell Proliferation, 3H-thymidine incorporation vs control (100%) ([2]; 10^-10): 119%

O=[N+]([O-])c1ccc(S(=O)(=O)N2CCCC(c3ccc(F)cc3)=N2)cc1 [Compound 10]
pIC50 [1]: 5.98 | Osteoblast Cell Proliferation, 3H-thymidine incorporation vs control (100%) ([2]; 10^-6): 91% | Osteoblast Cell Proliferation, 3H-thymidine incorporation vs control (100%) ([2]; 10^-7): 90% | Osteoblast Cell Proliferation, 3H-thymidine incorporation vs control (100%) ([2]; 10^-8): 123% | Osteoblast Cell Proliferation, 3H-thymidine incorporation vs control (100%) ([2]; 10^-9): 115% | Osteoblast Cell Proliferation, 3H-thymidine incorporation vs control (100%) ([2]; 10^-10): 139%

O=S(=O)(c1cc(Cl)ccc1Cl)N1CCCC(c2ccc(F)cc2)=N1 [Compound 11]
pIC50 [1]: 7.70 | Osteoblast Cell Proliferation, 3H-thymidine incorporation vs control (100%) ([2]; 10^-6): 106% | Osteoblast Cell Proliferation, 3H-thymidine incorporation vs control (100%) ([2]; 10^-7): 135% | Osteoblast Cell Proliferation, 3H-thymidine incorporation vs control (100%) ([2]; 10^-8): 156% | Osteoblast Cell Proliferation, 3H-thymidine incorporation vs control (100%) ([2]; 10^-9): 131% | Osteoblast Cell Proliferation, 3H-thymidine incorporation vs control (100%) ([2]; 10^-10): 154%

O=[N+]([O-])c1ccc(S(=O)(=O)N2CCCC(c3ccc(Cl)c(C(F)(F)F)c3)=N2)cc1 [Compound 128]
pIC50 [1]: 7.85

O=S(=O)(c1ccc(C(F)(F)F)cc1)N1CCCC(c2ccc3ccccc3c2)=N1 [Compound 129]
pIC50 [1]: 8.31

O=S(=O)(c1cccc(C(F)(F)F)c1)N1CCCC(c2ccc3ccccc3c2)=N1 [Compound 130]
pIC50 [1]: 8.64

O=S(=O)(c1ccccc1)N1CCCC(c2ccc3ccccc3c2)=N1 [Compound 131]
pIC50 [1]: 7.76

O=S(=O)(c1ccc2ccccc2c1)N1CCCC(c2ccc3ccccc3c2)=N1 [Compound 132]
pIC50 [1]: 8.12

COC(=O)CCCOc1ccc(Br)cc1S(=O)(=O)N1CCCC(c2ccc(Cl)c(Cl)c2)=N1 [Compound 136, 3-(3,4-dichlorophenyl)-1-(2-(3-carbomethoxypropxy)-5-bromobenzenesulphonyl)-1,4,5,6-tetrahydropyridazine]
pIC50 [1]: 7.15

CN1C(=O)CSc2cc(C3=NN(S(=O)(=O)c4ccc(I)cc4)CCC3)ccc21 [Compound 138]
pIC50 [1]: 6.47

CC1CC(c2ccccc2)=NN(S(=O)(=O)c2cccc(C(F)(F)F)c2)C1 (stereo not drawn) [Compound 141]
pIC50 [1]: 6.40

CC1CC(c2ccccc2)=NN(S(=O)(=O)c2ccc(Br)cc2)C1 (stereo not drawn) [Compound 142]
pIC50 [1]: 5.79

Cc1ccc(S(=O)(=O)N2CC(C)CC(c3ccccc3)=N2)cc1 (stereo not drawn) [Compound 143]
pIC50 [1]: 5.86

O=S(=O)(c1ccc(I)cc1)N1CCCC(c2ccc3c(c2)oc2ccccc23)=N1 [Compound 145, 3-(Dibenzofuran-3-yl)-1-(4-iodobenzenesulfonyl)-1,4,5,6-tetrahydropyradazine]
pIC50 [1]: 7.00

Cc1ccc(C(=O)N2CCCC(c3ccc(Cl)cc3)=N2)cc1 [Compound 146, 1-(4-Methylbenzoyl)-3-(4-chlorophenyl)-1,4,5,6-tetrahydropyridazine]
pIC50 [1]: 6.00

O=S(=O)(c1ccc(I)cc1)N1N=C(c2ccc(Cl)cc2)CC2CC=CC21 (stereo not drawn) [Compound 160, 3-(4-Chlorophenyl)-1-(4-iodobenzenesulfonyl)-4,4a,5,7a-tetrahydro-1H-cyclopenta[c]pyridiazine]
pIC50 [1]: 7.49

O=S(=O)(c1ccc(I)cc1)N1CCC(Br)(Br)C(c2ccc(Cl)c(C(F)(F)F)c2)=N1 [Compound 162, 4,4-Dibromo-3-(4-chloro-3-trifluoromethylphenyl)-1-(4-iodobenzenesulfonyl)-1,4,5,6-tetrahydropyridazine]
pIC50 [1]: 8.52

Cc1ccc(/C=C/S(=O)(=O)N2CCCC(c3ccc4ccccc4c3)=N2)cc1 [Compound 175]
pIC50 [1]: 8.21

O=S(=O)(/C=C/c1ccc2ccccc2c1)N1CCCC(c2ccc(Cl)c(C(F)(F)F)c2)=N1 [Compound 177]
pIC50 [1]: 6.28

CN(C)c1ccc(C2=NN(S(=O)(=O)c3ccc(I)cc3)CCC2)cc1 [Compound 209, 1-(4-Iodobenzenesulfonyl)-3-(4-dimethylaminophenyl)-1,4,5,6-tetrahydropyridazine]
pIC50 [1]: 6.93

CN(C)c1ccc(C2=NN(S(=O)(=O)c3ccc(Br)cc3)CCC2)cc1 [Compound 213]
pIC50 [1]: 6.49

O=[N+]([O-])c1ccc(C(=S)N2CCCC(c3ccc(Cl)c(Cl)c3)=N2)cc1 [Compound 242]
pIC50 [1]: 7.92

Fc1ccc(C(=S)N2CCCC(c3ccc(Cl)c(Cl)c3)=N2)cc1Br [Compound 246]
pIC50 [1]: 6.94

O=S(=O)(c1ccc(C(F)(F)C(F)(F)F)cc1)N1CCCC(c2ccc(Cl)c(Cl)c2)=N1 [Compound 272, 3-(3,4-Dichlorophenyl)-1-(4-pentafluoroethylbenzenesulfonyl)-1,4,5,6-tetrahydropyridazine]
pIC50 [1]: 6.48

COC(=O)c1ccc(S(=O)(=O)N2CCCC(c3ccc(Cl)c(Cl)c3)=N2)cc1 [Compound 273, 3-(3,4-Dichlorophenyl)-1-(4-carbomethoxybenzesulfonyl)-1,4,5,6-tetrahydropyridazine]
pIC50 [1]: 8.47

Nc1ccc(S(=O)(=O)N2CCCC(c3ccc(Cl)c(Cl)c3)=N2)cc1 [Compound 274, 1-(4-Aminobenzenesulfonyl)-3-(3,4-dichlorophenyl)-1,4,5,6-tetrahydropyridazine]
pIC50 [1]: 6.69

O=S(=O)(/C=C/c1ccccc1)N1CCCC(c2ccc(Cl)c(C(F)(F)F)c2)=N1 [Compound 276]
pIC50 [1]: 7.27
